Experiments:
Type in all cases: cell-based
[1] = tested on: MSTO-211H cells; assay: Proliferation assay (EdU incorporation), MSTO-211H; conditions: Homo sapiens, 72 h, YAP-driven MSTO-211H (LATS1 mutation), 3 days with inhibitor, 1% serum
Procedure: (§1) The anti-proliferative activity of TEAD inhibitors was evaluated in cells with different properties for YAP; “YAP-driven” cells (MSTO-211H, NCI-H226) in which YAP located in the nucleus and “YAP-independent” cells (OCM1, NCI-H28) where YAP located in the cytoplasm. […] TEAD inhibitors were evaluated with cell lines with these YAP profiling and mutational status.
(§2) The next day, replace it with cell starvation medium containing 1% serum. After one day of growth in the starvation medium, the cells were incubated for 3 days with TEAD inhibitors in a concentration range of 0.01-10 μM. After 3 days, EdU (Invitrogen) at a concentration of 10 µM was added to the starvation medium and incubated for an additional 24 hours. After removing the starvation medium remaining in each well, wash the wells with PBS. Cells were fixed with 4% paraformaldehyde (Electron microscopy sciences) at room temperature for 20 minutes. After removing the fix solution remaining in each well, wash the wells with PBS and the cells were permeabilized for 40 minutes by adding 0.5% triton X-100 (Sigma Aldrich). After removing the permeabilization solution remaining in each well, the EdU labeling was performed according to the instructions of the manufacturer's instructions (Click-iT™ Cell Reaction Buffer Kit, Invitrogen). After the Click reaction for EdU labeling, nuclei were stained with […] (Thermo Scientific) for total cell count analysis. After plate preparation for detection, Image acquisition was performed using the ImageXpress Micro XLS. The acquired images were analyzed using MetaXpress software (molecular devices). Through this experimental method, it was possible to confirm the inhibitory activity of TEAD inhibitors by detection EdU incorporated into proliferating cells.
(§3) IC50 for cell proliferation inhibition activity are shown in the Table 2 below and designated within the following ranges. [+++: ≤0.1 μM, ++: >0.1 μM to ≤1 μM, +: >1 μM to ≤10μ, −: >10 μM]

[2] = tested on: TEAD reporter-containing human breast cancer cell line MCF7; assay: TEAD reporter (luciferase) assay; conditions: TEAD reporter MCF7 cells, 24 hours treatment, 1% serum media
Procedure: The TEAD reporter-containing human breast cancer cell line MCF7 (60618, BPS bioscience) was cultured according to the manufacturer's instructions. Cells were plated in 96-well white plates at a density of 30,000 per well and incubated overnight. The following day cells were treated with small molecules in 1% serum media (0.1% v/v DMSO). After 24 hours of the treatment, cell viability was evaluated by using CCK-8 reagent (CK04, Dojindo) and measuring absorbance at 450 nm. Then, the assay for luciferase activity was performed using Dual-Glo® Luciferase Assay System (Promega, E2940) following the manufacturer's instructions. Luminescence intensity was measured and the potency of the compounds was determined by IC50 value generated from non-linear regression analysis of the dose-response curves.
IC50 for luciferase activity are shown in the Table 1 below and designated within the following ranges. [+++: ≤0.1 μM, ++: >0.1 μM to ≤1 μM, +: >1 μM to ≤10 μM, −: >10 μM]

[3] = tested on: NCI-H226 cells; assay: Proliferation assay (EdU incorporation), NCI-H226; conditions: Homo sapiens, 72 h, YAP-driven NCI-H226 (NF2 mutation), 3 days with inhibitor, 1% serum
Procedure: as §1, §2, §3

C=CC(=O)Nc1ccc2c(c1)c(/C=C/c1ccc(Cl)cc1)cn2C [Compound 22, (E)-N-(3-(4-Chlorostyryl)-1-methyl-1H-indol-5-yl)acrylamide]
IC50 [1]: 0.1 to 1 µM
IC50 [2]: 0.1 to 1 µM
IC50 [3]: 0.1 to 1 µM

C=CC(=O)Nc1cnc2c(c1)c(/C=C/c1ccc(F)cc1)cn2C [Compound 47, (E)-N-(3-(4-Fluorostyryl)-1-methyl-1H-pyrrolo[2,3-b]pyridin-5-yl)acrylamide]
IC50 [1]: ≤ 0.1 µM
IC50 [3]: ≤ 0.1 µM

C=CC(=O)Nc1cnc2c(c1)c(CCc1ccc(F)cc1)cn2C [Example 63, N-(3-(4-Fluorophenethyl)-1-methyl-1H-pyrrolo[2,3-b]pyridin-5-yl)acrylamide]
IC50 [1]: ≤ 0.1 µM
IC50 [2]: ≤ 0.1 µM
IC50 [3]: ≤ 0.1 µM

C=CC(=O)Nc1cnc2c(c1)c(/C=C/c1ccc(Cl)cc1)cn2C(F)F [Example 128, (E)-N-(3-(4-Chlorostyryl)-1-(difluoromethyl)-1H-pyrrolo[2,3-b]pyridin-5-yl)acrylamide]
IC50 [1]: 0.1 to 1 µM
IC50 [3]: 0.1 to 1 µM

C=CC(=O)Nc1ccc2c(c1)c(/C=C/C1CCC(F)(F)CC1)cn2CC [Compound 25, (E)-N-(3-(2-(4,4-Difluorocyclohexyl)vinyl)-1-ethyl-1H-indol-5-yl)acrylamide]
IC50 [1]: ≤ 0.1 µM
IC50 [2]: ≤ 0.1 µM
IC50 [3]: 0.1 to 1 µM

C=CC(=O)Nc1ccc2c(c1)c(/C=C/c1ccc(Cl)cc1)nn2C [Compound 2, (E)-N-(3-(4-Chlorostyryl)-1-methyl-1H-indazol-5-yl)acrylamide]
IC50 [1]: ≤ 0.1 µM
IC50 [2]: 0.1 to 1 µM
IC50 [3]: ≤ 0.1 µM

C=CC(=O)Nc1cnc2c(c1)c(/C=C/C1CCC(F)(F)CC1)cn2C [Compound 15, (E)-N-(3-(2-(4,4-Difluorocyclohexyl)vinyl)-1-methyl-1H-pyrrolo[2,3-b]pyridin-5-yl)acrylamide]
IC50 [1]: ≤ 0.1 µM
IC50 [2]: ≤ 0.1 µM
IC50 [3]: ≤ 0.1 µM

C=CC(=O)Nc1cnc2c(c1)c(/C=C/C1CCC(F)(F)CC1)cn2CC [Compound 17, (E)-N-(3-(2-(4,4-Difluorocyclohexyl)vinyl)-1-ethyl-1H-pyrrolo[2,3-b]pyridin-5-yl)acrylamide]
IC50 [1]: 0.1 to 1 µM
IC50 [3]: ≤ 0.1 µM

C=CC(=O)Nc1ccc2c(c1)c(/C=C/c1ccc(F)cc1)cn2C [Compound 24, (E)-N-(3-(4-Fluorostyryl)-1-methyl-1H-indol-5-yl)acrylamide]
IC50 [1]: 0.1 to 1 µM
IC50 [2]: 0.1 to 1 µM
IC50 [3]: ≤ 0.1 µM

C=CC(=O)Nc1cnc2c(c1)c(/C=C/C1CCC(F)(F)CC1)nn2C(C)C [Compound 34, (E)-N-(3-(2-(4,4-Difluorocyclohexyl)vinyl)-1-isopropyl-1H-pyrazolo[3,4-b]pyridin-5-yl)acrylamide]
IC50 [1]: 0.1 to 1 µM
IC50 [2]: ≤ 0.1 µM

C=CC(=O)Nc1cnc2c(c1)c(-c1ccc3ccccc3c1)cn2C [Example 107, N-(1-Methyl-3-(naphthalen-2-yl)-1H-pyrrolo[2,3-b]pyridin-5-yl)acrylamide]
IC50 [1]: ≤ 0.1 µM
IC50 [2]: ≤ 0.1 µM

C=CC(=O)Nc1ccc2c(c1)c(/C=C/c1ccc(Cl)cc1)cn2CC [Compound 26, (E)-N-(3-(4-Chlorostyryl)-1-ethyl-1H-indol-5-yl)acrylamide]
IC50 [1]: 0.1 to 1 µM
IC50 [2]: 0.1 to 1 µM

C=CC(=O)Nc1cnc2c(c1)c(/C=C/c1ccc(Cl)s1)cn2C [Example 81, (E)-N-(3-(2-(5-Chlorothiophen-2-yl)vinyl)-1-methyl-1H-pyrrolo[2,3-b]pyridin-5-yl)acrylamide]
IC50 [1]: ≤ 0.1 µM
IC50 [2]: 0.1 to 1 µM

C=CC(=O)Nc1cnc2c(c1)c(/C=C/C1CCC(F)(F)CC1)cn2C(F)F [Example 130, (E)-N-(3-(2-(4,4-Difluorocyclohexyl)vinyl)-1-(difluoromethyl)-1H-pyrrolo[2,3-b]pyridin-5-yl)acrylamide]
IC50 [1]: 0.1 to 1 µM
IC50 [2]: 0.1 to 1 µM

C=CC(=O)Nc1cnc2c(c1)c(-c1ccc(C3CC3)cc1)cn2C [Example 106, N-(3-(4-Cyclopropylphenyl)-1-methyl-1H-pyrrolo[2,3-b]pyridin-5-yl)acrylamide]
IC50 [1]: ≤ 0.1 µM
IC50 [2]: 0.1 to 1 µM

C=CC(=O)Nc1cc(F)c2c(c1)c(/C=C/C1CCC(F)(F)CC1)cn2C [Compound 36, (E)-N-(3-(2-(4,4-Difluorocyclohexyl)vinyl)-7-fluoro-1-methyl-1H-indol-5-yl)acrylamide]
IC50 [1]: ≤ 0.1 µM
IC50 [2]: 0.1 to 1 µM

C=CC(=O)Nc1cnc2c(c1)c(-c1cccc(/C=C/C3CCC(F)(F)CC3)c1)cn2C [Example 85, (E)-N-(3-(3-(2-(4,4-Difluorocyclohexyl)vinyl)phenyl)-1-methyl-1H-pyrrolo[2,3-b]pyridin-5-yl)acrylamide]
IC50 [1]: 0.1 to 1 µM
IC50 [2]: 0.1 to 1 µM

C=CC(=O)Nc1cc(F)c2c(c1)c(/C=C/c1ccc(Cl)cc1)cn2C [Compound 37, (E)-N-(3-(4-Chlorostyryl)-7-fluoro-1-methyl-1H-indol-5-yl)acrylamide]
IC50 [1]: ≤ 0.1 µM
IC50 [2]: 0.1 to 1 µM

C=CC(=O)Nc1cnc2c(c1)c(-c1ccc(C(F)(F)F)cc1)cn2C [Compound 51, N-(1-Methyl-3-(4-(trifluoromethyl)phenyl)-1H-pyrrolo[2,3-b]pyridin-5-yl)acrylamide]
IC50 [1]: ≤ 0.1 µM
IC50 [2]: 1 to 10 µM

C=CC(=O)Nc1cnc2c(c1)c(/C=C/C1CCC(F)(F)CC1)nn2CC [Compound 32, (E)-N-(3-(2-(4,4-Difluorocyclohexyl)vinyl)-1-ethyl-1H-pyrazolo[3,4-b]pyridin-5-yl)acrylamide]
IC50 [1]: 0.1 to 1 µM
IC50 [2]: ≤ 0.1 µM

C=CC(=O)Nc1cnc2c(c1)c(-c1ccc(SCC)cc1)cn2C [Example 111, N-(3-(4-(Ethylthio)phenyl)-1-methyl-1H-pyrrolo[2,3-b]pyridin-5-yl)acrylamide]
IC50 [1]: ≤ 0.1 µM
IC50 [2]: 0.1 to 1 µM

C=CC(=O)Nc1cnc2c(c1)c(/C=C/c1ccc(Cl)cc1)cn2C1CCCC1 [Compound 10, (E)-N-(3-(4-Chlorostyryl)-1-cyclopentyl-1H-pyrrolo[2,3-b]pyridin-5-yl)acrylamide]
IC50 [1]: 0.1 to 1 µM
IC50 [2]: 1 to 10 µM

C=CC(=O)Nc1ccc2c(c1)c(C1CCC(C)(C)CC1)cn2C [Example 122, N-(3-(4,4-dimethylcyclohexyl)-1-methyl-1H-indol-5-yl)acrylamide]
IC50 [1]: 0.1 to 1 µM
IC50 [2]: ≤ 0.1 µM

C=CC(=O)Nc1cnc2c(c1)c(CCC1CCC(F)(F)CC1)cn2C [Example 64, N-(3-(2-(4,4-Difluorocyclohexyl)ethyl)-1-methyl-1H-pyrrolo[2,3-b]pyridin-5-yl)acrylamide]
IC50 [1]: ≤ 0.1 µM
IC50 [2]: ≤ 0.1 µM

C=CC(=O)Nc1ccc2c(c1)c(C1=CCC(F)(F)CC1)cn2C [Compound 23, N-(3-(4,4-Difluorocyclohex-1-en-1-yl)-1-methyl-1H-indol-5-yl)acrylamide]
IC50 [1]: 0.1 to 1 µM
IC50 [2]: ≤ 0.1 µM

C=CC(=O)Nc1cnc2c(c1)c(-c1ccc(Cl)cc1)cn2C(F)F [Example 132, N-(3-(4-Chlorophenyl)-1-(difluoromethyl)-1H-pyrrolo[2,3-b]pyridin-5-yl)acrylamide]
IC50 [1]: 0.1 to 1 µM
IC50 [2]: 1 to 10 µM

C=CC(=O)Nc1cnc2c(c1)c(/C=C/c1ccc(Cl)cc1)nn2C(C)C [Compound 35, (E)-N-(3-(4-Chlorostyryl)-1-isopropyl-1H-pyrazolo[3,4-b]pyridin-5-yl)acrylamide]
IC50 [1]: 0.1 to 1 µM
IC50 [2]: 0.1 to 1 µM

C=CC(=O)Nc1ccc2c(c1)c(/C=C/C1CCC(F)(F)CC1)cn2C(C)C [Compound 27, (E)-N-(3-(2-(4,4-Difluorocyclohexyl)vinyl)-1-isopropyl-1H-indol-5-yl)acrylamide]
IC50 [1]: 0.1 to 1 µM
IC50 [2]: 0.1 to 1 µM

Cn1cc(/C=C/c2ccc(Cl)cc2)c2cc(NC(=O)CCl)cnc21 [Example 70, (E)-2-Chloro-N-(3-(4-chlorostyryl)-1-methyl-1H-pyrrolo[2,3-b]pyridin-5-yl) acetamide]
IC50 [1]: 1 to 10 µM
IC50 [2]: 1 to 10 µM

C=CC(=O)Nc1ccc2c(c1)c(/C=C/C1CCC(F)(F)CC1)nn2C(C)C [Compound 5, (E)-N-(3-(2-(4,4-Difluorocyclohexyl)vinyl)-1-isopropyl-1H-indazol-5-yl)acrylamide]
IC50 [1]: 0.1 to 1 µM
IC50 [2]: 0.1 to 1 µM

Source: US20250282735A1, “BICYCLE COMPOUNDS AS TEAD INHIBITOR” (DONG-A ST CO., LTD., priority 2022, published 2025)
